# Test results: US20050084839A1, “Method for selecting oocytes by using a response to LPA stimulation” (Hitachi, Ltd., priority 2003, published 2005)
# Several values for one entry are separate records, joined by “and”; a condition that tells them apart may be missing. Equal values may be shown once.
# Tested on: LPAR expressed endogenously in Xenopus laevis oocytes
# Experiment: Current response of oocytes to LPA stimulation (two-electrode voltage clamp)
# Format: cell-based
# Settings: 1 nM LPA; for Response to LPA, Average: average of six cells, −60 mV; for Response to LPA (difference between current value before LPA stimulation and peak current value after): individual cells, membrane potential fixed to −60 mV
# Text: First, an ovary is extracted from a female Xenopus laevis by a conventional method, and oocytes are isolated from the ovary by an enzymic treatment or the like. Oocytes not suitable for experiments are removed by a microscopic observation of their appearances such as size, shape, color and pattern. From the remaining group of oocytes, several cells, preferably 3 to 10 cells, more preferably 4 to 7 cells, and most preferably 6 cells are extracted at random. The membrane potential of the extracted oocytes is fixed to a constant voltage, for example, […] to −40 mV or +20 mV to +60 mV, preferably −60 mV by a known method such as two-electrode voltage clamp method or patch clamp method (See, e.g., Shin pacchikuranpu jikkengijutuhou, ed. Okada Yasunobu, Yoshiokashoten, Joron Ion Chaneru, pp. 1-14). By fixing the membrane potential, it is possible to measure the ionic current passing through channels or transporters of electrically resistant nature.
# To the oocyte after fixing to a certain potential was added about 1 pM to 10 μM, preferably 100 pM to 100 nM, and most preferably 10 nM of LPA, followed by measurement of current response of the oocyte. An average current response is determined for a group of oocytes measured where the current response to LPA stimulation is the difference between the peak current value before LPA addition and the peak current value after LPA addition, providing the response of GPCR for a group of oocytes containing a brood of oocytes. A group of oocytes having a response of GPCR higher than a certain desirable value or within a certain desirable range are selected. The oocytes belonging to the group of oocytes selected in this way originate from a mother, and therefore, each oocyte has genetically nearly equal response of GPCR and may be considered excellent in response of GPCR.
# Ovaries were extracted from mother bodies A, B, and C, and their follicle cells were removed by a conventional method. The oocytes after removal of follicles were selected based on their appearances that seemed suitable for experiments, and groups of oocytes were saved separately for each mother body (batches A, B, and C). From each batch, six oocytes were extracted at random, respectively.
# The membrane potential of each cell was fixed to −60 mV by the two-electrode voltage clamp method. Each cell was stimulated by 1 nM LPA, and then the current response was measured. The difference between the current value before LPA stimulation and the peak current value after LPA stimulation was determined for each cell and shown in Table 1. There were differences in the responses to LPA among the batches.
substance,measurement,setting,value
Lysophosphatidic acid [LPA],"Response to LPA, Average",Batch A oocytes,0.8 μA
same,Response to LPA (difference between current value before LPA stimulation and peak current value after),Batch A oocytes,1.1 μA and 1.5 μA and 0.6 μA (2×) and 0.3 μA and 0.8 μA
same,"Response to LPA, Average",Batch B oocytes,2.0 μA
same,Response to LPA (difference between current value before LPA stimulation and peak current value after),Batch B oocytes,2.5 μA and 1.8 μA and 2.6 μA and 1.1 μA and 2.3 μA and 1.4 μA
same,"Response to LPA, Average",Batch C oocytes,0.2 μA
same,Response to LPA (difference between current value before LPA stimulation and peak current value after),Batch C oocytes,0.1 μA (2×) and 0.3 μA and 0.4 μA and 0.0 μA and 0.2 μA
